Results on three compounds are retold here after US10117877B2, “Methods for fat reduction” (ALLERGAN, INC., priority 2015, dated 2018).

“Also recorded” adds a separate entry of the source.

Test [1] concerns Human Hair Dermal Papilla Cells (HHDPCs). The test can be described thus: in vitro impedance (cell dielectric spectroscopy, CellKey) assay with human dermal papilla cells. The following applies: 10^−5 to 10^−12 M, impedance measured over 20 minutes, three independent experiments. The class given is cell-based. How it is done: In this example, the lack of activity of the compound according to Formulas I and II is shown. In general, bimatoprost or the compound of Formula I was incubated at concentrations from 10^−5 and 10^−12 M with human dermal papilla cells in an in vitro impedance assay. […] Three independent experiments were performed.
More specifically, Human Hair Dermal Papilla Cells (HHDPCs) were expanded in specific culture medium (Promo Cell). After growing, the cells were seeded on 96 well plates coated with poly-L-Lysine at 20,000 cells per well. Cells were incubated during 24 hours at 37° C., 5% CO2. The day of the experiment, the culture medium was eliminated and replaced by HBSS containing BSA, 0.1% v/v. The cells were incubated in the CellKey system, for 4 hours at 28° C. before using to test compounds. Bimatoprost, the compound of Formula I, and/or the compound of Formula II were tested at […] from 10^−5 to 10^−12 M. The change in impedance was measured over 20 minutes. The background was subtracted and the impedance signal was normalized to the reference (bimatoprost) for the compound of Formula I and the compound of Formula II. The data presented is in triplicate and of three independent experiments.

Another test concerns female C57BL/6J mice. The test is described as follows: in vivo mouse hair re-growth model, topical on shaved backs. The following applies: 0.03% topical in minoxidil formulation; for full hair re-growth: shaved backs of mice. How it is done:
In general, the compound of formula I and bimatoprost were prepared in the minoxidil formulation (50% Propylene Glycol; 30% Ethyl Alcohol) at a concentration of 0.03% for both compounds. Both compounds were given topically to shaved backs of mice (as described in Khidhir et al. FASEB J. 2013 27(2):557-567).
More specifically, female C57BL/6J mice (cat. no. 000664; Jackson Laboratory, Bar Harbor, Me., USA), aged 7 weeks, were randomly distributed into 4 groups to avoid any sibling bias and housed in groups of 5 with standard diet food pellets and water available ad libitum. […] From the next day, termed d 0 (zero), each mouse was treated topically with either the vehicle alone (ethanol:propylene glycol:water 3:5:2) or 0.03, 0.10, or 0.30% bimatoprost in the vehicle for d 14; 10 mice were used for each condition. The appropriate solution (70 μl) was rubbed gently into the dorsal skin of each mouse daily; new gloves were worn for each treatment type. Hair growth was recorded daily for each animal for d 42, and dorsal photographs were taken at d 0, 7, 14, 17, 21, 24, 28, 31, 35, and 42. […] To calculate mean values, the first day of growth was designated as d 43 for any mouse showing no hair growth signs by the last day. The day when the shaved dorsal area was fully covered with new black hairs, i.e., there was no pink skin remaining and no visible difference in hair length to the adjacent unshaved areas, was also recorded. This assay has been successfully used to evaluate compounds that cause hair growth (see, e.g., Khidhir et al. FASB J. 2013, 27, 557-567; Plikus et al. J. Invest. Dermatol. 2008, 128, 1071-1080).

Test [2] concerns prostamide receptors on human pre-adipocytes. The test can be described thus: xCelligence impedance assay on pre-adipocytes. The class given is cell-based. The note with it: for EC50: 20 min, human pre-adipocytes, 7 concentrations (10^−5 to 10^−9 M), signal measured for 20 minutes; for stimulation of prostamide receptors on human pre-adipocytes: xCelligence impedance assay; for potency relative to bimatoprost on human pre-adipocytes: comparison of the EC50 values of Table 1. As to the method: In this example it is shown that the compounds of Formulas I and II stimulates pre-adipocytes. In general, the compounds of Formulas I and II and bimatoprost were tested in the xCelligence impedance assay.
More specifically, pre-adipocytes were purchased from Lonza. Cells were expanded in Pre-adipocyte maintenance medium (Lonza, Switzerland). Once expanded, 10,000 cells per well were plated into xCelligence 96-well plates and incubated at 37° C. for 72 hours until the impedance signal normalized. Once normalized, media was switched to serum-free pre-adipocyte media (PDM-2) for 2 hours at 37° C. Once the signal stabilized for 30 minutes, compounds were added at 7 concentrations (10^−5 to 10^−9 M) and the signal measured for 20 minutes. The change in impedance was normalized to the background reading (buffer alone) and the EC50 calculations were determined using prism software.

The nature of test [3]: body weight gain in rats on daily oral gavage for 26 weeks. It counts as in vivo, rats (Hsd: Sprague Dawley). How it is done: In this example it is shown that the compound of Formula I when administration orally daily results in reduction in weight gain and lower mean body weights. In general males rats (n=17-20) and female rats (n=17-20) were administered orally (by gavage) daily for 6 months at the doses indicated below.
More specifically, male and female rats (Hsd: Sprague Dawley) were assigned to four groups and administered test article formulations (0.03, 0.3, or 5 mg/kg/day compound of Formula I) or vehicle control article (0 mg/mL [0%] compound of Formula I [placebo] containing 3% hydroxypropyl-β-cyclodextrin [30 mg/mL (150 mg/kg/day)] and 10 mM phosphate buffered saline) via oral gavage once daily for 26 weeks at a volume of 5 mL/kg. Animals were sacrificed at the end of the dosing phase (up to 15 animals/sex/group) or at the end of the 4-week recovery phase (5 animals/sex/group in dose groups given vehicle control article and 5 mg/kg/day the compound of Formula I). These animals were on a restricted diet due to the length of the study. Weights were measured once per week.

The mark [4] stands for this setting: 5 mg/kg/day oral gavage daily for 6 months, p<0.05.

Take `CCNC(=O)CCC/C=C\C[C@@H]1[C@@H](/C=C/[C@@H](O)CCc2ccccc2)[C@H](O)C[C@@H]1O` [Bimatoprost, bimatoprost, reference compound]: in test [1], the “change in impedance (agonist response) on human dermal papilla cells” value (“change in impedance (agonist response)” for short) is reported as “reduction in impedance; also recorded: shows activity”. In addition, in the test on female C57BL/6J mice, the “start of hair re-growth” value is “accelerates both time to start and full hair re-growth”; the full hair re-growth result was “accelerates both time to start and full hair re-growth”. Moreover, in test [2], the EC50 – broadly, the midpoint of the concentration-response curve – was 784 nM and the “stimulation of prostamide receptors on human pre-adipocytes” value (shortened to “stimulation of prostamide receptors”) is recorded as “stimulate prostamide receptors”.

Take `NC(=O)CCC/C=C\C[C@@H]1[C@@H](/C=C/[C@@H](O)CCc2cc(Br)sc2Br)[C@H](O)C[C@@H]1O` [Formula II]: in test [1], the “change in impedance (agonist response)” value is “do not show activity”. In addition, in test [2], a half-maximal response (EC50) required 11.7 nM, the “potency relative to bimatoprost on human pre-adipocytes” value was “relatively more potent than bimatoprost” and the “stimulation of prostamide receptors” value is reported as “stimulate prostamide receptors”.

With `NC(=O)CCC/C=C\C[C@@H]1[C@@H](/C=C/[C@@H](O)CCc2cc(Cl)sc2Cl)[C@H](O)C[C@@H]1O` [Formula I], the “change in impedance (agonist response)” value in test [1] is given as “did not produce any detectable effect; also recorded: do not show activity”. In addition, in the test with female C57BL/6J mice, the “start of hair re-growth” value is given as “appears to boost the start to hair re-growth” and the full hair re-growth entry is “does not result in full hair re-growth”. In test [2], the response was half-maximal at 10.7 nM (EC50), the “potency relative to bimatoprost on human pre-adipocytes” value is on record as “relatively more potent than bimatoprost” and the “stimulation of prostamide receptors” value is given as “stimulate prostamide receptors”. Besides, in test [3] (0.3 mg/kg/day oral gavage daily for 6 months, p<0.05), the “weight gain, female rats” value is given as “inhibited weight gain”. In addition, in test [3] (setting [4]), the “weight gain, female rats” value was “inhibited weight gain” and the “weight gain, male rats” value is reported as “inhibited weight gain”. The “reversibility of the weight effect after administration ceased” value in test [3] (4-week recovery phase after 5 mg/kg/day) was “somewhat reversible”. The “start of the decrease in body weight gain” value in test [3] (daily oral administration, male and female rats, persisted up to 183 days) is on record as 14 days.
